Data taken from patent publication US10689383B2, “Optionally fused heterocyclyl-substituted derivatives of pyrimidine useful for the treatment of inflammatory, metabolic, oncologic and autoimmune diseases” (NUEVOLUTION A/S, priority 2014, dated 2020).

Target: T1, human RORγt (Ligand Binding Domain) (Homo sapiens, UniProt P51449)
T1 construct: purchased Crelux (Planegg, Germany) batch no PC5032-1
T1 sequence (P51449 269-508 limits assumed): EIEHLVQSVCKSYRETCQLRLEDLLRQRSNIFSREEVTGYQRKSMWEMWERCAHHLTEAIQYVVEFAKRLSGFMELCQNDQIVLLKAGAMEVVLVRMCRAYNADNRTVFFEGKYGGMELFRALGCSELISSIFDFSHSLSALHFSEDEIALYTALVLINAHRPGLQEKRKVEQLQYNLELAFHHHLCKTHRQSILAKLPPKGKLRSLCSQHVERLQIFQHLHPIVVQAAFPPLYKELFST
Assay: Fluorescence Polarization (FP) Assay
Settings: not given
Summary of the method: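 Binding to the ligand pocket followed by fluorescence polarization with a TAMRA-tagged RORγt ligand probe of 910 g/mole. Negative control wells received DMSO only.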

SMILES | IC50
Oc1cc(CNc2ncnc(N3CCCC3c3ccc(C(F)(F)F)cc3)c2F)on1 (stereo not shown) [Example 216, 5-[[[5-fluoro-6-[2-[4-(trifluoromethyl)phenyl]pyrrolidin-1-yl]pyrimidin-4-yl]amino]methyl]isoxazol-3-ol] | < 10 µM

Same assay, conditions: Fluorescence Polarization (FP) Assay; values given as upper bounds of activity ranges; read-out: FP activity range

SMILES | IC50
Fc1c(NCC2CCCS2)ncnc1N1CCC[C@@H]1c1ccc(C(F)(F)F)cc1 (stereo partly drawn) [Example 159, 5-fluoro-N-(tetrahydrothiophen-2-ylmethyl)-6-[(2R)-2-[4-(trifluoromethyl)phenyl]pyrrolidin-1-yl]pyrimidin-4-amine] | < 2 µM
CC1(C)CCC(CNc2ncnc(N3CCC[C@@H]3c3ccc(C(F)(F)F)cc3)c2F)CC1 [Example 166, N-[(4,4-dimethylcyclohexyl)methyl]-5-fluoro-6-[(2R)-2-[4-(trifluoromethyl)phenyl]pyrrolidin-1-yl]pyrimidin-4-amine] | < 0.5 µM
O=S1(=O)CCCC1CNc1ncnc(N2CCC[C@@H]2c2ccc(C(F)(F)F)cc2)c1F (stereo partly drawn) [Example 170, N-[(1,1-dioxothiolan-2-yl)methyl]-5-fluoro-6-[(2R)-2-[4-(trifluoromethyl)phenyl]pyrrolidin-1-yl]pyrimidin-4-amine] | < 10 µM
CC(C)(C)C1OCCCC1CNc1ncnc(N2CCC[C@@H]2c2ccc(C(F)(F)F)cc2)c1F (stereo partly drawn) [Example 175, N-[(2-tert-butyltetrahydropyran-3-yl)methyl]-5-fluoro-6-[(2R)-2-[4-(trifluoromethyl)phenyl]pyrrolidin-1-yl]pyrimidin-4-amine] | < 10 µM
CC(C)C1CCC(CNc2ncnc(N3CCC[C@@H]3c3ccc(C(F)(F)F)cc3)c2F)CC1 (stereo partly drawn) [Example 178, 5-fluoro-N-[(4-isopropylcyclohexyl)methyl]-6-[(2R)-2-[4-(trifluoromethyl)phenyl]pyrrolidin-1-yl]pyrimidin-4-amine] | < 0.5 µM
Fc1c(NCC2CCCO2)ncnc1N1CCC[C@@H]1c1ccc(C(F)(F)F)cc1 (stereo partly drawn) [Example 181, 5-fluoro-N-(tetrahydrofuran-2-ylmethyl)-6-[(2R)-2-[4-(trifluoromethyl)phenyl]pyrrolidin-1-yl]pyrimidin-4-amine] | < 10 µM
O=S1(=O)CCC(CNc2ncnc(N3CCC[C@@H]3c3ccc(C(F)(F)F)cc3)c2F)C1 (stereo partly drawn) [Example 184, N-[(1,1-dioxothiolan-3-yl)methyl]-5-fluoro-6-[(2R)-2-[4-(trifluoromethyl)phenyl]pyrrolidin-1-yl]pyrimidin-4-amine] | < 0.5 µM
[O-][n+]1cccc(CNc2ncnc(N3CCC[C@@H]3c3ccc(C(F)(F)F)cc3)c2F)c1 [Example 193, 5-fluoro-N-[(1-oxidopyridin-1-ium-3-yl)methyl]-6-[(2R)-2[4-(trifluoromethyl)phenyl]pyrrolidin-1-yl]pyrimidin-4-amine] | < 10 µM
[O-][n+]1ccc(CNc2ncnc(N3CCC[C@@H]3c3ccc(C(F)(F)F)cc3)c2F)cc1 [Example 194, 5-fluoro-N-[(1-oxidopyridin-1-ium-4-yl)methyl]-6-[(2R)-2-[4-(trifluoromethyl)phenyl]pyrrolidin-1-yl]pyrimidin-4-amine] | < 2 µM
COC1CC(c2ccc(C(F)(F)F)cc2)N(c2ncnc(NCc3ccc(C)nc3)c2F)C1 (stereo not shown) [Example 212, 5-fluoro-6-[4-methoxy-2-[4-(trifluoromethyl)phenyl]pyrrolidin-1-yl]-N-[(6-methyl-3-pyridyl)methyl]pyrimidin-4-amine] | < 10 µM
Cc1cnc(CNc2ncnc(N3CCCC3c3ccc(C(F)(F)F)cc3)c2F)o1 (stereo not shown) [Example 213, 5-fluoro-N-[(5-methyloxazol-2-yl)methyl]-6-[2-[4-(trifluoromethyl)phenyl]pyrrolidin-1-yl]pyrimidin-4-amine] | < 10 µM
Oc1nnc(CNc2ncnc(N3CCCC3c3ccc(C(F)(F)F)cc3)c2F)o1 (stereo not shown) [Example 214, 5-(((5-fluoro-6-(2-(4-(trifluoromethyl)phenyl)pyrrolidin-1-yl)pyrimidin-4-yl)amino)methyl)-1,3,4-oxadiazol-2-ol] | < 10 µM
CCC(Nc1ncnc(N2CCCC2c2ccc(C(F)(F)F)cc2)c1F)c1noc(C)n1 (stereo not shown) [Example 215, 5-fluoro-N-[1-(5-methyl-1,2,4-oxadiazo1-3-yl)propyl]-6-[2-[4-(trifluoromethyl)phenyl]pyrrolidin-1-yl]pyrimidin-4-amine] | < 10 µM
OCc1cccc(CNc2ncnc(N3CCC[C@@H]3c3ccc(C(F)(F)F)cc3)c2F)c1 [Example 217, [3-[[[5-fluoro-6-[(2R)-2-[4-(trifluoromethyl)phenyl]pyrrolidin-1-yl]pyrimidin-4-yl]amino]methyl]phenyl]methanol] | < 10 µM
Fc1c(NCC2CCCC2)ncnc1N1CCC[C@@H]1c1ccc(C(F)(F)F)cc1 [Example 218, N-(cyclopentylmethyl)-5-fluoro-6-[(2R)-2-[4-(trifluoromethyl)phenyl]pyrrolidin-1-yl]pyrimidin-4-amine] | < 10 µM
CS(=O)(=O)c1ccc(CNc2ncnc(N3CCC[C@@H]3c3ccc(C(F)(F)F)cc3)c2F)cc1 [Example 219, 5-fluoro-N-[(4-methylsulfonylphenyl)methyl]-6-[(2R)-2-[4-(trifluoromethyl)phenyl]pyrrolidin-1-yl]pyrimidin-4-amine] | < 10 µM
O=C(O)C[C@H]1CC[C@H](CNc2ncnc(N3CCOC[C@@H]3c3ccc(OC(F)(F)F)cc3)c2F)CC1 [Example 243, 2-[4-[[[5-fluoro-6-[(3S)-3-[4-(trifluoromethoxy)phenyl]morpholin-4-yl]pyrimidin-4-yl]amino]methyl]cyclohexyl]acetic acid] | < 0.5 µM
CNC(=O)Cc1ccc(CNc2ncnc(N3CCOC[C@@H]3c3ccc(C(F)(F)F)cc3)c2F)cc1 [Example 244, 2-[4-[[[5-fluoro-6-[(3S)-3-[4-(trifluoromethyl)phenyl]morpholin-4-yl]pyrimidin-4-yl]amino]methyl]phenyl]-N-methyl-acetamide] | < 2 µM

Other lines, results leading:

IC50 | SMILES
< 10 µM | NC(=O)C1(CNc2ncnc(N3CCOC[C@@H]3c3ccc(C(F)(F)F)cc3)c2F)CCCC1 [Example 249, 1-[[[5-fluoro-6-[(3S)-3-[4-(trifluoromethyl)phenyl]morpholin-4-yl]pyrimidin-4-yl]amino]methyl] cyclopentanecarboxamide]
< 10 µM | CN(C)C(=O)C1(CNc2ncnc(N3CCOC[C@@H]3c3ccc(C(F)(F)F)cc3)c2F)CCCC1 [Example 250, 1-[[[5-fluoro-6-[(3S)-3-[4-(trifluoromethyl)phenyl]morpholin-4-yl]pyrimidin-4-yl]amino]methyl]-N,N-dimethyl-cyclopentanecarboxamide]
< 10 µM | CS(=O)(=O)NC1CCCC1CNc1ncnc(N2CCOC[C@@H]2c2ccc(C(F)(F)F)cc2)c1F (stereo partly drawn) [Example 251, N-[2-[[[5-fluoro-6-[(3S)-3-[4-(trifluoromethyl)phenyl]morpholin-4-yl]pyrimidin-4-yl]amino]methyl]cyclopentyl] methanesulfonamide]
< 10 µM | NCCNC(=O)C1(CNc2ncnc(N3CCOC[C@@H]3c3ccc(C(F)(F)F)cc3)c2F)CCOCC1 [Example 256, N-(2-aminoethyl)-4-[[[5-fluoro-6-[(3S)-3-[4-(trifluoromethyl)phenyl]morpholin-4-yl]pyrimidin-4-yl]amino]methyl]tetrahydropyran-4-carboxamide]
< 10 µM | O=C(O)C1(CNc2ncnc(N3CCOCC3c3ccc(C(F)(F)F)cc3)c2F)CCOCC1 (stereo not shown) [Example 268, 4-[[[5-fluoro-6-[3-[4-(trifluoromethyl)phenyl]morpholin-4-yl]pyrimidin-4-yl]amino]methyl]tetrahydropyran-4-carboxylic acid]
< 1 µM | CS(=O)(=O)c1ccc(CNc2ncnc(N3CCOC[C@@H]3c3ccc(C(F)(F)F)cc3)c2F)cn1 [Example 293, 5-fluoro-N-[(6-methylsulfonyl-3-pyridyl)methyl]-6-[(3S)-3-[4-(trifluoromethyl)phenyl]morpholin-4-yl]pyrimidin-4-amine]
< 10 µM | CC(C)(CCS(C)(=O)=O)CNc1ncnc(N2CCOC[C@@H]2c2ccc(C(F)(F)F)cc2)c1F [Example 294, N-(2,2-dimethyl-4-methylsulfonyl-butyl)-5-fluoro-6-[(3S)-3-[4-(trifluoromethyl)phenyl]morpholin-4-yl]pyrimidin-4-amine]
< 10 µM | OCC1(CNc2ncnc(N3CCOC[C@@H]3c3ccc(C(F)(F)F)cc3)c2F)CC1 [Example 296, [1-[[[5-fluoro-6-[(3S)-3-[4-(trifluoromethyl)phenyl]morpholin-4-yl]pyrimidin-4-yl]amino]methyl]cyclopropyl] methanol]
< 10 µM | CS(=O)(=O)NC1CCN(c2ncnc(N3CCOC[C@@H]3c3ccc(C(F)(F)F)cc3)c2F)CC1 [Example 297, N-[1-[5-fluoro-6-[(3 S)-3-[4-(trifluoromethyl)phenyl]morpholin-4-yl]pyrimidin-4-yl]-4-piperidyl]methanesulfonamide]
< 2 µM | CS(=O)(=O)N1CCOC(CNc2ncnc(N3CCOC[C@@H]3c3ccc(C(F)(F)F)cc3)c2F)C1 (stereo partly drawn) [Example 309, 5-fluoro-N-[(4-methylsulfonylmorpholin-2-yl)methyl]-6-[(3S)-3-[4-(trifluoromethyl)phenyl]morpholin-4-yl]pyrimidin-4-amine]
< 0.5 µM | NC(=O)Cc1ccc(CNc2ncnc(N3CCCC3c3nc4ccccc4s3)c2F)cc1 (stereo not shown) [Example 310, 2-[4-[[[6-[2-(1,3-benzothiazol-2-yl)pyrrolidin-1-yl]-5-fluoro-pyrimidin-4-yl]amino]methyl]phenyl]acetamide]
< 0.5 µM | NC(=O)Cc1ccc(CNc2ncnc(N3CCCC3c3cccc4ccccc34)c2F)cc1 (stereo not shown) [Example 311, 2-[4-[[[5-fluoro-6-[2-(1-naphthyl)pyrrolidin-1-yl]pyrimidin-4-yl]amino]methyl]phenyl] acetamide]
